# ChEMBL document CHEMBL3430912, “GSK Tres Cantos Anti-Kinetoplastid Screening (TCAKS) Data”
# Legend:
# Trypanosoma cruzi [1] = test: (§1) GSK_TCAKS: pIC50 H2C9 Imaging: H9c2 Host Cardiomyocytes. […] Cells were then washed once with PBS before infection. T. cruzi trypomastigotes, collected at days 5 to 8 after infection from LLC-MK2 parasite infected cultures, were allowed to swim out for 4h at 37C from a centrifuged pellet (2,500 rpm/10 min/room temperature). Trypomastigotes were then collected and counted in a CASY Cell Counter. Trypomastigotes, in supplemented DMEM, were added to H9c2 cultures in a multiplicity of infection of 1 and incubated for 18 h. Cells were washed once with PBS before incubation of the infected H9c2 monolayer with trypsin (Life-Technologies) to detach cells from the flask. Cells were counted in a CASY Cell Counter using a 150 um capillary and their density set at 5 * 10^4 cells per mL in supplemented assay DMEM. Infected H9c2 were dispensed into 384-well poly-lysine coated assay plates at 50uL per well using a Multidrop Combi dispenser. After seeding them, the plates were incubated at 37C, 5% CO2 for 72h. Cultures were then fixed and stained by addition of 50 uL of a solution containing 8% formaldehyde and 4 uM DRAQ5 DNA dye (BioStatus, UK) per well. […] Five images were collected per well for reliable statistical analysis. Automated image analysis was performed with a script developed on Acapella High Content Imaging and Analysis Software (PerkinElmer). Output: Number of H9c2 Host Cardiomyocytes nuclei to determine drug-related cytotoxicity.; type: functional, organism-based, Rattus norvegicus; details: H9c2, 4 h
# Leishmania donovani [2] = test: GSK_TCAKS: pIC50 Leishmania donovani viability assay using fluorescence intensity. Assay plates (1536-well) were prepared by adding 30nL per well of compound. For single shot assay, the final compound concentration was 5uM. […] Briefly, eGFP LdBOB axenic amastigotes were harvested, fixed and counted in a CASY cell counter (Roche-Applied Science). A final concentration of 1.5 * 10^5 cells per well were prepared in amastigote media containing 500 U/mL penicillin/streptomycin (Invitrogen) and 6uL was dispensed to each experimental well using a Multidrop Combi dispenser (Thermo Scientific). 6uL of assay media was dispensed to control columns used as reference for 100% compound response. Following incubation for 72 h at 37C, 5% CO2, 2 uL of resazurin was added to each well at a final concentration of 0.5 mM in phosphate buffered saline (PBS) with IGEPAL (Sigma-Aldrich), 0.05% (v/v).; type: functional, organism-based
# Trypanosoma cruzi [3] = test: as §1, with “Trypanosoma cruzi” for “H2C9”, “Infected Cells.” for “H9c2 Host Cardiomyocytes.”, “percentage” for “Number”, “infected cells per well as a second infection marker.” for “H9c2 Host Cardiomyocytes nuclei to determine drug-related cytotoxicity.”; type: functional, organism-based, Rattus norvegicus; details: H9c2, 4 h
# [4] = target: Sterol 14-alpha demethylase (Trypanosoma cruzi (strain CL Brener), UniProt Q7Z1V1); test: GSK_TCAKS: pIC50 CYP51 from Trypanosoma cruzi.; type: functional
# Chain of Sterol 14-alpha demethylase (Q7Z1V1 whole entry): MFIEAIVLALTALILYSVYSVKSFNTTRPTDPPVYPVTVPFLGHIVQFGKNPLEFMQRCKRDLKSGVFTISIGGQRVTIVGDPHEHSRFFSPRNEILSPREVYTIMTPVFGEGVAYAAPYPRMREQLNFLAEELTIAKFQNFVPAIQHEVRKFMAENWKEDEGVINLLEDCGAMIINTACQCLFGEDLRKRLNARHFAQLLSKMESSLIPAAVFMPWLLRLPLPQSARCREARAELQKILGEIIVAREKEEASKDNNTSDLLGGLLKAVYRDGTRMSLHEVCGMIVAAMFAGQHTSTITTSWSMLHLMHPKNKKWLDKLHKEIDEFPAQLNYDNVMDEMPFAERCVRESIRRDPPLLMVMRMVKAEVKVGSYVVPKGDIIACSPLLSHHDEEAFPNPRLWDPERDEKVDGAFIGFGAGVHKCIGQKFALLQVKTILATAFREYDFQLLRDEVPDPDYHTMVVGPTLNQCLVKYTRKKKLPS
# [5] = system: Trypanosoma brucei brucei; test: GSK_TCAKS: pIC50 Trypanosoma brucei viability assay using luminiscence. Assay plates (1536-well) were prepared. T. brucei cultures were harvested and counted in a CASY cell counter. A parasite suspension was prepared at a final concentration of 5 * 10^4 cells/mL in complete HMI9 medium and 6uL was dispensed to all wells containing compounds using a Multidrop Combi dispenser. 6uL of HMI9 media with 0.4% DMSO were dispensed to control columns. Plates were incubated for 24 h at 37C, 5% CO2 then tempered for 10 min at room temperature. ATP content was quantified by adding 4 uL of CellTiter-Glo Reagent (Promega) according to the manufacturer's instructions. Luminescence was measured using a ViewLux.; type: functional, organism-based; details: Lister 427, CASY
# Leishmania donovani [6] = test: (§2) GSK_TCAKS: pIC50 Leishmania donovani Imaging: THP-1 Host Macrophages. Assay plates (384-well) were prepared by adding 250nL of compound to each well. For single shot assay, the final compound concentration was 5 uM. […] Automated image analysis was performed with a script developed on Acapella High Content Imaging and Analysis Software (PerkinElmer). Output: THP-1 cell count were reported for each well.; type: functional, organism-based, Homo sapiens
# Leishmania donovani [7] = test: as §2, with “Infected” for “THP-1 Host”, “Percent of infected macrophage cells” for “THP-1 cell count”; type: functional, organism-based, Homo sapiens; details: THP-1
# [8] = system: Trypanosoma brucei brucei; test: GSK_TCAKS: pIC50 Trypanosoma brucei viability assay using fluorescence intensity. Assay plates (1536-well) were prepared by dispensing 25nL of compound solution per well using an Echo acoustic dispenser (Labcyte).; type: functional, organism-based; details: Lister 427, 2 h
# [9] = GSK_TCAKS: pIC50 HepG2 human cell line viability assay using luminiscence. […] Seeding density was checked to ensure that new mono-layers were not more than 50% confluent at the time of harvesting. Cell suspension was added to 500 mL of the same medium at a final density of 1.2 * 10^5 cells/mL. This cell suspension was dispensed (25 uL, 3000 cells per well) into 384-well clear-bottom plates using a Multidrop Combi dispenser. Prior to addition of the cell suspension, the screening compounds (250 nL) were pre-dispensed into the plates with an Echo liquid handler. Plates were incubated for 48 h at 37C, 5% CO2. After incubation, plates equilibrated at room temperature for 30 min before proceeding to develop the luminescent signal. The signal developer, CellTiter-Glo Reagent, was allowed to equilibrate at room temperature for 30 min and added to the plates (25uL per well) using a Multidrop Combi dispenser. Plates were left for 10 min at room temperature for stabilization and then read using a ViewLux.; type: toxicity, cell-based
# Trypanosoma cruzi [10] = test: as §1, with “Trypanosoma cruzi” for “H2C9”, “Amastigotes/Cell.” for “H9c2 Host Cardiomyocytes.”, “number” for “Number”, “amastigotes per cell as infection level measurement.” for “H9c2 Host Cardiomyocytes nuclei to determine drug-related cytotoxicity.”; type: functional, organism-based, Rattus norvegicus; details: H9c2, 4 h
# Leishmania donovani [11] = test: as §2, with “Amastigotes/Macrophages.” for “THP-1 Host Macrophages.”, “Average number of amastigotes per macrophage” for “THP-1”, “cell” for “cell count”; type: functional, organism-based, Homo sapiens; details: THP-1
# Trypanosoma cruzi [12] = test: GSK_TCAKS: pIC50 Trypanosoma cruzi viability assay using beta-GAL activity. This assay was run at single shot at 5uM compound concentration per well. The biological reagents consisted of NIH-3T3 host cells and trypomastigotes parasitic cells; both cell types were set to a 3.3 * 10^5 cells/mL dilution in assay DMEM by means of a CASY cell counter device using a 60um capillary. 6 uL of the mixture were dispensed per well (about 1 * 10^3 host-cells and 1 * 10^3 parasites) with a Multidrop Combi dispenser. […] In all wells, the percentage of DMSO never exceeded 0.5%. Plates incubated for four days at 37C, 5% CO2. The substrate used for the assay fluorescence intensity (FLINT) readout was resorufin-beta-D-galactopiranoside (Sigma-Aldrich) at 5uM per well. It was diluted in PBS supplemented with the soft detergent Igepal (Fluka).; type: functional, organism-based, Mus musculus; details: Tulahuen, NIH3T3
SMILES,IC50 (Trypanosoma cruzi [1]),IC50 (Leishmania donovani [2]),IC50 (Trypanosoma cruzi [3]),IC50 [4],IC50 [5],IC50 (Leishmania donovani [6]),IC50 (Leishmania donovani [7]),IC50 [8],IC50 at 48 h [9],IC50 (Trypanosoma cruzi [10]),IC50 (Leishmania donovani [11]),IC50 (Trypanosoma cruzi [12])
COc1cccc(NS(=O)(=O)c2ccc3ncc(C(=O)NCCC(C)C)c(O)c3c2)c1,12.6 µM,> 50.1 µM,31.6 µM,6.31 µM,0.631 µM,> 50.1 µM,> 50.1 µM,0.316 µM,31.6 µM,15.8 µM,> 50.1 µM,> 50.1 µM
CCOc1ccc(Nc2ccc(S(=O)(=O)N3CCN(C)CC3)cc2[N+](=O)[O-])cc1OCC,> 50.1 µM,0.794 µM,> 50.1 µM,31.6 µM,31.6 µM,12.6 µM,7.94 µM,6.31 µM,> 100 µM,3.16 µM,5.01 µM,7.94 µM
O=C(NCc1ccc(Cl)cc1)C1CN(C(=O)c2ccc(F)cc2)CCS1 (stereo unspecified),> 50.1 µM,> 50.1 µM,39.8 µM,12.6 µM,0.631 µM,> 50.1 µM,> 50.1 µM,0.794 µM,> 100 µM,31.6 µM,> 50.1 µM,25.1 µM
O=C(Nc1cccc(Cl)c1)Nc1ccc([N+](=O)[O-])cc1Cl,3.98 µM,6.31 µM,2 µM,5.01 µM,3.16 µM,25.1 µM,3.16 µM,2.51 µM,31.6 µM,1.58 µM,2 µM,1.26 µM
NCC(Cc1ccccc1)NC(=O)c1cnc(-c2c[nH]c3ncccc23)s1 (stereo unspecified),0.631 µM,> 50.1 µM,> 50.1 µM,1 µM,1 µM,6.31 µM,15.8 µM,0.398 µM,79.4 µM,20 µM,12.6 µM,2 µM
Cc1ccc(NC(=O)c2ccnc(N3CCCC3)c2)cc1-c1cc(C(N)=O)ccc1C,> 50.1 µM,25.1 µM,10 µM,3.98 µM,0.251 µM,31.6 µM,39.8 µM,0.1 µM,> 100 µM,3.16 µM,25.1 µM,6.31 µM
Cc1nnc(-c2nc(NCc3ccc(Cl)cc3)c3cccnc3c2O)[nH]1,25.1 µM,2 µM,0.794 µM,15.8 µM,0.794 µM,6.31 µM,0.501 µM,0.631 µM,15.8 µM,1.26 µM,0.501 µM,0.631 µM
CC(=O)Nc1ccc(-c2cnc(N)c(-c3nc4ccc(F)cc4[nH]3)c2)cc1,0.794 µM,6.31 µM,> 50.1 µM,63.1 µM,2 µM,7.94 µM,1 µM,0.631 µM,10 µM,> 50.1 µM,0.501 µM,0.631 µM
